# In patent US10550105B2 (Ribon Therapeutics Inc., priority 2018, dated 2020):
# Target: PARP7 (Homo sapiens (Human), UniProt Q7Z3E1)
# Test: Enzymatic assay for inhibition of PARP7: TR-FRET displacement of biotinylated Probe A from the TIPARP active site
# Type: binding
# Details: Table A-1
# Procedure, shortened: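 Compounds were tested as dose-response series, and reactions were incubated a further 30 min at 25° C. TR-FRET was read at 320 nm excitation with 615 and 665 nm emission after a 90 μs delay. The 665/615 ratio gave the TIPARP–Probe A complex, and % inhibition was fitted against concentration.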
# PARP7, sequence (Q7Z3E1 whole entry): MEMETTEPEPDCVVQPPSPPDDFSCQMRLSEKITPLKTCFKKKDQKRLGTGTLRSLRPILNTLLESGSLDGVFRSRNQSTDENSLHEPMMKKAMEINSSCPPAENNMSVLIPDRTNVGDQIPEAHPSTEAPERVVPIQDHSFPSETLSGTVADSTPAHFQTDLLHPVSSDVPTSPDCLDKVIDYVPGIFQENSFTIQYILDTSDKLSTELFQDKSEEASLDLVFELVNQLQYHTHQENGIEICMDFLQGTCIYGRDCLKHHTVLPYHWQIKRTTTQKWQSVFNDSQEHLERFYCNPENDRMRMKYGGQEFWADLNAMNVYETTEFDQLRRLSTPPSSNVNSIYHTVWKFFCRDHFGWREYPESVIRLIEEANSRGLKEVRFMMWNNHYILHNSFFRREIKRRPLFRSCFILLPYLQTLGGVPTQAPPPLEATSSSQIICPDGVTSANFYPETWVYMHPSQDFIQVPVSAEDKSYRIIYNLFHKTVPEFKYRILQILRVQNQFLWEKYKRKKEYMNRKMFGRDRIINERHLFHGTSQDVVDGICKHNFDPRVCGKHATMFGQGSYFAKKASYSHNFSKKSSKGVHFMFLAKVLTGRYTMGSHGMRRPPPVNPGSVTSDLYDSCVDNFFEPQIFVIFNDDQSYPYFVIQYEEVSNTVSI
row,Compound,IC50 [nM]
1,"O=C(c1cccc(OCC2c3ccccc3CN2c2cn[nH]c(=O)c2C(F)(F)F)c1)N1CCNCC1 (centres unmarked) [Example 363, 5-(1-((3-(Piperazine-1-carbonyl)phenoxy)methyl)isoindolin-2-yl)-4-(trifluoromethyl)pyridazin-3(2H)-one]",≥ 1000
2,"N#Cc1cnc(N2CCN(C(=O)c3cccc(OC[C@H]4c5ccccc5CN4c4cn[nH]c(=O)c4C(F)(F)F)c3)CC2)nc1 [Example 364, (R)-2-(4-(3-((2-(6-oxo-5-(trifluoromethyl)-1,6-dihydropyridazin-4-yl)isoindolin-1-yl)methoxy)benzoyl)piperazin-1-yl)pyrimidine-5-carbonitrile]",≥ 1000
3,"N#Cc1cnc(N2CCN(C(=O)c3cccc(OC[C@H]4c5ccccc5CN4c4cn[nH]c(=O)c4C(F)(F)F)c3)CC2)cn1 [Example 369, (R)-5-(4-(3-((2-(6-Oxo-5-(trifluoromethyl)-1,6-dihydropyridazin-4-yl)isoindohn-1-yl)methoxy)benzoyl)piperazin-1-yl)pyrazine-2-carbonitrile]",100 to 1000
4,"N#Cc1ccc(N2CCN(C(=O)c3ccc(OCC4c5ccccc5CN4c4cn[nH]c(=O)c4C(F)(F)F)cc3)CC2)nc1 (centres unmarked) [Example 371, 6-(4-(4-((2-(6-Oxo-5-(trifluoromethyl)-1,6-dihydropyridazin-4-yl)isoindolin-1-yl)methoxy)benzoyl)piperazin-1-yl)nicotinonitrile]",100 to 1000
5,"O=C(c1cccc(OC[C@H]2c3ccccc3CN2c2cn[nH]c(=O)c2C(F)(F)F)c1)N1CCn2c(nnc2C(F)(F)F)C1 [Example 372, (R)-4-(Trifluoromethyl)-5-(1-((3-(3-(trifluoromethyl)-5,6,7,8-tetrahydro-[1,2,4]triazolo[4,3-a]pyrazine-7-carbonyl)phenoxy)methyl)isoindolin-2-yl)pyridazin-3(2H)-one]",≥ 1000
6,"O=C(c1cncc(OCC2c3ccccc3CN2c2cn[nH]c(=O)c2C(F)(F)F)c1)N1CCN(c2ncc(C(F)(F)F)cn2)CC1 (centres unmarked) [Example 378, 4-(Trifluoromethyl)-5-(1-(((5-(4-(5-(trifluoromethyl)pyrimidin-2-yl)piperazine-1-carbonyl)pyridin-3-yl)oxy)methyl)isoindolin-2-yl)pyridazin-3(2H)-one]",< 100
7,"N#Cc1cnc(N2CCN(C(=O)c3cncc(OCC4c5ccccc5CN4c4cn[nH]c(=O)c4C(F)(F)F)c3)CC2)nc1 (centres unmarked) [Example 379, 2-(4-(5-((2-(6-Oxo-5-(trifluoromethyl)-1,6-dihydropyridazin-4-yl)isoindolin-1-yl)methoxy)nicotinoyl)piperazin-1-yl)pyrimidine-5-carbonitrile]",< 100
8,"N#Cc1cnc(N2CCN(C(=O)c3cc(OCC4c5ccccc5CN4c4cn[nH]c(=O)c4C(F)(F)F)ccn3)CC2)nc1 (centres unmarked) [Example 380, 2-(4-(4-((2-(6-Oxo-5-(trifluoromethyl)-1,6-dihydropyridazin-4-yl)isoindolin-1-yl)methoxy)picolinoyl)piperazin-1-yl)pyrimidine-5-carbonitrile]",< 100
9,"N#Cc1ccc(N2CCN(C(=O)c3ccnc(OCC4c5ccccc5CN4c4cn[nH]c(=O)c4C(F)(F)F)c3)CC2)nc1 (centres unmarked) [Example 381, 6-(4-(2-((2-(6-Oxo-5-(trifluoromethyl)-1,6-dihydropyridazin-4-yl)isoindolin-1-yl)methoxy)isonicotinoyl)piperazin-1-yl)nicotinonitrile]",< 100
10,"N#Cc1ccc(N2CCN(C(=O)c3ccnc(OCC4c5ccccc5CN4c4cn[nH]c(=O)c4C(F)(F)F)n3)CC2)nc1 (centres unmarked) [Example 383, 6-(4-(2-((2-(6-Oxo-5-(trifluoromethyl)-1,6-dihydropyridazin-4-yl)isoindolin-1-yl)methoxy)pyrimidine-4-carbonyl)piperazin-1-yl)nicotinonitrile]",< 100
11,"O=C(c1cncc(OC[C@@H]2c3ccccc3CN2c2cn[nH]c(=O)c2C(F)(F)F)c1)N1CCN(c2ccc(C(F)(F)F)cn2)CC1 [Example 384, (S)-4-(Trifluoromethyl)-5-(1-(((5-(4-(5-(trifluoromethyl)pyridin-2-yl)piperazine-1-carbonyl)pyridin-3-yl)oxy)methyl)isoindolin-2-yl)pyridazin-3(2H)-one]",< 100
12,"O=C(c1cncc(OC[C@H]2c3ccccc3CN2c2cn[nH]c(=O)c2C(F)(F)F)c1)N1CCN(c2ccc(C(F)(F)F)cn2)CC1 [Example 385, (R)-4-(Trifluoromethyl)-5-(1-(((5-(4-(5-(trifluoromethyl)pyridin-2-yl)piperazine-1-carbonyl)pyridin-3-yl)oxy)methyl)isoindolin-2-yl)pyridazin-3(2H)-one]",100 to 1000
13,"O=C(c1cncc(OC[C@@H]2c3ccccc3CN2c2cn[nH]c(=O)c2C(F)(F)F)c1)N1CCN(c2ccc(F)cn2)CC1 [Example 386, (5)-5-(1-(((5-(4-(5-Fluoropyridin-2-yl)piperazine-1-carbonyl)pyridin-3-yl)oxy)methyl)isoindolin-2-yl)-4-(trifluoromethyl)pyridazin-3(2H)-one]",< 100
14,"O=C(c1cncc(OC[C@H]2c3ccccc3CN2c2cn[nH]c(=O)c2C(F)(F)F)c1)N1CCN(c2ccc(F)cn2)CC1 [Example 387, (R)-5-(1-(((5-(4-(5-Fluoropyridin-2-yl)piperazine-1-carbonyl)pyridin-3-yl)oxy)methyl)isoindolin-2-yl)-4-(trifluoromethyl)pyridazin-3(2H)-one]",≥ 1000
15,"O=C(c1cncc(OC[C@@H]2c3ccccc3CN2c2cn[nH]c(=O)c2C(F)(F)F)c1)N1CCN(c2ccc(Cl)cn2)CC1 [Example 388, (S)-5-(1-(((5-(4-(5-Chloropyridin-2-yl)piperazine-1-carbonyl)pyridin-3-yl)oxy)methyl)isoindolin-2-yl)-4-(trifluoromethyl)pyridazin-3(2H)-one]",< 100
16,"O=C(c1cncc(OC[C@H]2c3ccccc3CN2c2cn[nH]c(=O)c2C(F)(F)F)c1)N1CCN(c2ccc(Cl)cn2)CC1 [Example 389, (R)-5-(1-(((5-(4-(5-Chloropyridin-2-yl)piperazine-1-carbonyl)pyridin-3-yl)oxy)methyl)isoindolin-2-yl)-4-(trifluoromethyl)pyridazin-3(2H)-one]",100 to 1000

# Other lines, results leading:
row,IC50 [nM],Compound
1,< 100,"N#Cc1cnc(N2CCN(C(=O)c3cccc(OC[C@@H]4c5ccccc5CN4c4cn[nH]c(=O)c4C(F)(F)F)c3)CC2)nc1 [Example 365, (S)-2-(4-(3-((2-(6-oxo-5-(trifluoromethyl)-1,6-dihydropyridazin-4-yl)isoindolin-1-yl)methoxy)benzoyl)piperazin-1-yl)pyrimidine-5-carbonitrile]"
2,< 100,"N#Cc1cnc(N2CCN(C(=O)c3cccc(OCC4c5ccccc5CN4c4cn[nH]c(=O)c4C(F)(F)F)c3)CC2)cn1 (centres unmarked) [Example 366, 5-(4-(3-((2-(6-Oxo-5-(trifluoromethyl)-1,6-dihydropyridazin-4-yl)isoindolin-1-yl)methoxy)benzoyl)piperazin-1-yl)pyrazine-2-carbonitrile]"
3,< 100,"O=C(c1cccc(OCC2c3ccccc3CN2c2cn[nH]c(=O)c2C(F)(F)F)c1)N1CCn2c(nnc2C(F)(F)F)C1 (centres unmarked) [Example 367, 4-(Trifluoromethyl)-5-(1-((3-(3-(trifluoromethyl)-5,6,7,8-tetrahydro-[1,2,4]triazolo[4,3-a]pyrazine-7-carbonyl)phenoxy)methyl)isoindolin-2-yl)pyridazin-3(2H)-one]"
4,< 100,"O=C(c1cccc(OCC2c3ccccc3CN2c2cn[nH]c(=O)c2C(F)(F)F)c1)N1CCN(c2ccc(C(F)(F)F)cn2)CC1 (centres unmarked) [Example 368, 4-(Trifluoromethyl)-5-(1-((3-(4-(5-(trifluoromethyl)pyridin-2-yl)piperazine-1-carbonyl)phenoxy)methyl)isoindolin-2-yl)pyridazin-3(2H)-one]"
5,< 100,"N#Cc1cnc(N2CCN(C(=O)c3cccc(OC[C@@H]4c5ccccc5CN4c4cn[nH]c(=O)c4C(F)(F)F)c3)CC2)cn1 [Example 370, (S)-5-(4-(3-((2-(6-Oxo-5-(trifluoromethyl)-1,6-dihydropyridazin-4-yl)isoindohn-1-yl)methoxy)benzoyl)piperazin-1-yl)pyrazine-2-carbonitrile]"
6,< 100,"O=C(c1cccc(OC[C@@H]2c3ccccc3CN2c2cn[nH]c(=O)c2C(F)(F)F)c1)N1CCn2c(nnc2C(F)(F)F)C1 [Example 373, (S)-4-(Trifluoromethyl)-5-(1-((3-(3-(trifluoromethyl)-5,6,7,8-tetrahydro-[1,2,4]triazolo[4,3-a]pyrazine-7-carbonyl)phenoxy)methyl)isoindolin-2-yl)pyridazin-3(2H)-one]"
7,< 100,"O=C(c1cncc(OCC2c3ccccc3CN2c2cn[nH]c(=O)c2C(F)(F)F)c1)N1CCN(c2ccc(C(F)(F)F)cn2)CC1 (centres unmarked) [Example 374, 4-(Trifluoromethyl)-5-(1-(((5-(4-(5-(trifluoromethyl)pyridin-2-yl)piperazine-1-carbonyl)pyridin-3-yl)oxy)methyl)isoindolin-2-yl)pyridazin-3(2H)-one]"
8,< 100,"O=C(c1cncc(OCC2c3ccccc3CN2c2cn[nH]c(=O)c2C(F)(F)F)c1)N1CCN(c2ccc(F)cn2)CC1 (centres unmarked) [Example 375, 5-(1-(((5-(4-(5-Fluoropyridin-2-yl)piperazine-1-carbonyl)pyridin-3-yl)oxy)methyl)isoindolin-2-yl)-4-(trifluoromethyl)pyridazin-3(2H)-one]"
9,< 100,"O=C(c1cncc(OCC2c3ccccc3CN2c2cn[nH]c(=O)c2C(F)(F)F)c1)N1CCN(c2ccc(Cl)cn2)CC1 (centres unmarked) [Example 376, 5-(1-(((5-(4-(5-Chloropyridin-2-yl)piperazine-1-carbonyl)pyridin-3-yl)oxy)methyl)isoindolin-2-yl)-4-(trifluoromethyl)pyridazin-3(2H)-one]"
10,< 100,"O=C(c1cccc(OCC2c3ccccc3CN2c2cn[nH]c(=O)c2C(F)(F)F)c1)N1CCN(c2ncc(C(F)(F)F)cn2)CC1 (centres unmarked) [Example 377, 4-(Trifluoromethyl)-5-(1-((3-(4-(5-(trifluoromethyl)pyrimidin-2-yl)piperazine-1-carbonyl)phenoxy)methyl)isoindolin-2-yl)pyridazin-3(2H)-one]"
